Among the data in publication PMC5820112 (Journal of molecular and cellular cardiology, 2017) are Ki and IC50 values, retold here.

The target in experiment [1] is T1, CaMKIIδ (Ca2+/calmodulin-dependent protein kinase II delta) (Homo sapiens, UniProt Q13557). The experiment is described as follows: continuous coupled spectrophotometric kinase assay with autocamtide-3. Type of experiment: biochemical.
Experiment [2] concerns the target T1, CaMKIIδ (Ca2+/calmodulin-dependent protein kinase II delta). Described as above. Type of experiment: biochemical. The source holds these as a separate data set.

T1 sequence (Q13557 2-499): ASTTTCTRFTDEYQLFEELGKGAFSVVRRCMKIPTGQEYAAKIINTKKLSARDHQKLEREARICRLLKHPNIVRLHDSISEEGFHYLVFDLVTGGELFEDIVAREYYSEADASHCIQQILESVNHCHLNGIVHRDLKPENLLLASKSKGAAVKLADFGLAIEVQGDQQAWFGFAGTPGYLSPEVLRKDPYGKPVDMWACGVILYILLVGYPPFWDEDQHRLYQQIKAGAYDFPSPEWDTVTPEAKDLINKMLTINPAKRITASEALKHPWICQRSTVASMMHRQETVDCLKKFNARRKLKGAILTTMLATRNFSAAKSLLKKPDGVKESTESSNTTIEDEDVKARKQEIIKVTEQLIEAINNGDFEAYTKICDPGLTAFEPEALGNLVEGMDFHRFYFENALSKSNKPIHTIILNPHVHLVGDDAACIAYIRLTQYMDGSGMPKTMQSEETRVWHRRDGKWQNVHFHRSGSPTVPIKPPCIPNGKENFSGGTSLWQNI

As to AS105, the affinity in experiment [1], expressed as Ki, was 3 nM. For the compound `COc1ccc(S(=O)(=O)N(CCO)c2ccccc2CN(C)C/C=C/c2ccc(Cl)cc2)cc1` [KN-93], 1400 nM corresponded to half-maximal inhibition in experiment [2] (IC50).
